Laboratory results as given in ChEMBL document CHEMBL2074426 (Mol Pharmacol, 2001).

Assays:
Type in all cases: functional, cell-based
[1] = biological target: ATP-dependent translocase ABCB1 (Homo sapiens, UniProt P08183); assay: TP_TRANSPORTER: transepithelial transport (basal to apical) in MDR1-expressing LLC-PK1 cells; details: pig
[2] = biological target: ATP-dependent translocase ABCB1 (Mus musculus, UniProt P06795); assay: TP_TRANSPORTER: transepithelial transport (basal to apical) in mdr1b-expressing LLC-PK1 cell
ATP-dependent translocase ABCB1 (Mus musculus, UniProt P06795), sequence (P06795 whole entry): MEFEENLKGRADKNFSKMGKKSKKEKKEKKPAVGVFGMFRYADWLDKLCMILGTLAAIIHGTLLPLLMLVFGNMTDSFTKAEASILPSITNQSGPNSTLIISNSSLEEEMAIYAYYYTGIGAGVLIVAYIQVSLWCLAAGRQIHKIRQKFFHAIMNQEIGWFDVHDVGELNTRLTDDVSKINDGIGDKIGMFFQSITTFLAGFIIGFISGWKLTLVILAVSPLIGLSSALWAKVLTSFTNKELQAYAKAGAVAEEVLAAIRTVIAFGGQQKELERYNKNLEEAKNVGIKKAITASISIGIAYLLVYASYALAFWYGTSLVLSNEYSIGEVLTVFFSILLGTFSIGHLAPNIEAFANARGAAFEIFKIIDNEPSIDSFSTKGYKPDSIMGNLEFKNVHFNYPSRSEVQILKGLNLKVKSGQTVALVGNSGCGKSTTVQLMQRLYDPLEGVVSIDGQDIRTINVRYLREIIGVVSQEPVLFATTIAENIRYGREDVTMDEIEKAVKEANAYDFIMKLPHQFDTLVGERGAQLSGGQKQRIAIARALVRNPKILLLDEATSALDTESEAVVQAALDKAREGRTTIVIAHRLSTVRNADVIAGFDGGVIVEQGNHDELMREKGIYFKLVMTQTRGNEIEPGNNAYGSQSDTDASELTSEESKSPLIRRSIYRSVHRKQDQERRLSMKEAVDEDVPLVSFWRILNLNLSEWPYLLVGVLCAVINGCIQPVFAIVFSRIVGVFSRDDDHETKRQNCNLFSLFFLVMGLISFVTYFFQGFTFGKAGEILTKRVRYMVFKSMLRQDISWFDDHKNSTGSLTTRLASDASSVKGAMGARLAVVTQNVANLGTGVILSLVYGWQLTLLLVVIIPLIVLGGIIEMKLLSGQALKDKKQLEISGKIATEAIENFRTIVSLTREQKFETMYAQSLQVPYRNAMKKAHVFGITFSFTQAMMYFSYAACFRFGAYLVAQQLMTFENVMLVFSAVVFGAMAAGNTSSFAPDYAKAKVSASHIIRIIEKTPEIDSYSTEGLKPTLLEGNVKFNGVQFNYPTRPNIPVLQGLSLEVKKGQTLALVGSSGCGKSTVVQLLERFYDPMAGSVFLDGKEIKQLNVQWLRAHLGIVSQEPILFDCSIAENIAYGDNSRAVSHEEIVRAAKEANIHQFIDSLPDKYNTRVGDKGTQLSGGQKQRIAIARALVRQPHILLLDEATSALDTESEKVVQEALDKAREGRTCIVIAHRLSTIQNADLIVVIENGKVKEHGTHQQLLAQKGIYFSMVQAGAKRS

[3] = biological target: ATP-dependent translocase ABCB1 (Mus musculus, UniProt P21447); assay: TP_TRANSPORTER: transepithelial transport (basal to apical) in mdr1a-expressing LLC-PK1 cell; details: pig
ATP-dependent translocase ABCB1 (Mus musculus, UniProt P21447), sequence (P21447 whole entry): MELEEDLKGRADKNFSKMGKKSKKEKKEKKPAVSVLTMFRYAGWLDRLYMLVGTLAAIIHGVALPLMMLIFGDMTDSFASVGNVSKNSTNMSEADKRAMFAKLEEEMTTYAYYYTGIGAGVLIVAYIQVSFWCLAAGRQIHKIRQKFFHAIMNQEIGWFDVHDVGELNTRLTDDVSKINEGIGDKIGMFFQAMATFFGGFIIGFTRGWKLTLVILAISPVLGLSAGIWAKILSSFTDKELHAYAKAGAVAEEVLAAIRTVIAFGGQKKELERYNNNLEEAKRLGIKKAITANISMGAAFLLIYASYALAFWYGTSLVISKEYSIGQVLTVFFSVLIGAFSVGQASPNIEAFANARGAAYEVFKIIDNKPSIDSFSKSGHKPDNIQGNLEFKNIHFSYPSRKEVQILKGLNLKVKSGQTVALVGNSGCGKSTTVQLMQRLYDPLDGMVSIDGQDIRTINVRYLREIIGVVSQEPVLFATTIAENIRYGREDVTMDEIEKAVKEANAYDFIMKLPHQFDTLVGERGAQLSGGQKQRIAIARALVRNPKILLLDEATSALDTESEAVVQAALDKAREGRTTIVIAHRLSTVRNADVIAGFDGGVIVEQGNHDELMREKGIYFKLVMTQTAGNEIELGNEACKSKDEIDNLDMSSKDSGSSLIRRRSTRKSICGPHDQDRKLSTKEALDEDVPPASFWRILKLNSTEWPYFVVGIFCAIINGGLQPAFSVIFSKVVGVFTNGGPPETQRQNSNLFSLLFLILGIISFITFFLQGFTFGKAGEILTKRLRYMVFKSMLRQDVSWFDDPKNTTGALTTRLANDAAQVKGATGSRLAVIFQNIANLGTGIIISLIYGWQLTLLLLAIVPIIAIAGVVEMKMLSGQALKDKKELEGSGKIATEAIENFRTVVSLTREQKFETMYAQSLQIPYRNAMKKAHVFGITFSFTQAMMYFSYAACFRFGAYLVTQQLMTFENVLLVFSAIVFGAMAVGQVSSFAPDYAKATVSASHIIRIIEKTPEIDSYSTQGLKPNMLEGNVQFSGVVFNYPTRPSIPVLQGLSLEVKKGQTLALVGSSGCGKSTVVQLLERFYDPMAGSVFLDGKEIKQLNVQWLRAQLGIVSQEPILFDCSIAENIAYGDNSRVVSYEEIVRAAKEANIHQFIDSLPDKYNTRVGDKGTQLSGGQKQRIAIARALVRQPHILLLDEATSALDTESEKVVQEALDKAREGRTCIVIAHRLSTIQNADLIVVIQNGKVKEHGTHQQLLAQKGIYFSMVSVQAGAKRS

Measured: Activity

ATP-dependent translocase ABCB1 (Homo sapiens, UniProt P08183), sequence (P08183 whole entry): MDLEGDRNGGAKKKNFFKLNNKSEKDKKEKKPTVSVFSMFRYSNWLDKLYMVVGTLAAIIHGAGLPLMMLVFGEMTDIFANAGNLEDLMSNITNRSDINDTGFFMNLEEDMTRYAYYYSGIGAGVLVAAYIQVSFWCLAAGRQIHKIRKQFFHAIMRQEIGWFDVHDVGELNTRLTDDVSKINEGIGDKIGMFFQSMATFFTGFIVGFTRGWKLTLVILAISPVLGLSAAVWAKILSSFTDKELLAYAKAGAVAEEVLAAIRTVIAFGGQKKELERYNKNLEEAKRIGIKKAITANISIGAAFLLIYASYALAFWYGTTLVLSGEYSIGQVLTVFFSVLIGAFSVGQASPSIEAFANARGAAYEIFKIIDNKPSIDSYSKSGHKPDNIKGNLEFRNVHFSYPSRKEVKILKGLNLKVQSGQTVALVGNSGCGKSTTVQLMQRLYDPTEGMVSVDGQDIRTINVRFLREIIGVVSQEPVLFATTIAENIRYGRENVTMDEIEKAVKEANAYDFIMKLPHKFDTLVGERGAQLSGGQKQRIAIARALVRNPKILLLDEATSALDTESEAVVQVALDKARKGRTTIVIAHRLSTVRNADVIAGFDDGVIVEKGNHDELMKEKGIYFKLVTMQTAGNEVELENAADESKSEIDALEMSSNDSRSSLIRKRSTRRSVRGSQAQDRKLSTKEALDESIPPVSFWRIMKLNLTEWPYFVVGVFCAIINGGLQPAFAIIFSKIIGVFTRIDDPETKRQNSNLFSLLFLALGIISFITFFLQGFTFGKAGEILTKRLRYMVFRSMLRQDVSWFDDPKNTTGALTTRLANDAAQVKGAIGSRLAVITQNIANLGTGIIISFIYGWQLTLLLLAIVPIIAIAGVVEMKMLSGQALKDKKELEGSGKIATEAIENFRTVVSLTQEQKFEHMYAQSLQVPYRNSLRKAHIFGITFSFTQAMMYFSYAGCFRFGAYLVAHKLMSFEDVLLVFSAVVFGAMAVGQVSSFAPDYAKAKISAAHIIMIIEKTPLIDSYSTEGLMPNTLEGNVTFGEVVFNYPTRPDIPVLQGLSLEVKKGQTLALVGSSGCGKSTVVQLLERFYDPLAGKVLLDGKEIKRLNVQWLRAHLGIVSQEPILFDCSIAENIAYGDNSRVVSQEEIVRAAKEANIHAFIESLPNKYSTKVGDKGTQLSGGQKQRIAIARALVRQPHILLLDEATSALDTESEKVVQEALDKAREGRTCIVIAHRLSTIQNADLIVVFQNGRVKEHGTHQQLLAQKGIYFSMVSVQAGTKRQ

CC(C)(C)NC(=O)[C@@H]1C[C@@H]2CCCC[C@@H]2CN1C[C@@H](O)[C@H](Cc1ccccc1)NC(=O)[C@H](CC(N)=O)NC(=O)c1ccc2ccccc2n1
substrate [+]: [1] | [2] | [3]
